Reference: article PMC13198257, “An aerosolized dual-action autotaxin inhibitor-PPARγ agonist for the treatment of pulmonary fibrosis” (Cell Reports Medicine, 2026)

System: lung gene expression
Assay: RNA sequencing of lung tissue (BLM/EL244 vs BLM)
Type: in vivo, mouse
Conditions: BLM/EL244 vs BLM
Experimental: RNA quality was assessed using an Agilent TapeStation 4150 with the High Sensitivity […] ScreenTape (Agilent), according to the manufacturer’s protocols. For library preparation, the QuantSeq 3’mRNA-Seq Library Prep Kit (Lexogen) was used according to manufacturer’s instructions. Briefly, 500 ng of RNA from each sample was used for first-strand synthesis, followed by RNA template removal, and second-strand synthesis initiated by random primers. In-line barcodes were introduced at this step, and this was followed by magnetic bead-based purification. The resulting libraries were amplified for 15 cycles and re-purified, with quantity and quality assessed on a Qubit 4 Fluorometer with the Invitrogen Qubit dsDNA HS Assay and an Agilent Tapestation 4150 with the High Sensitivity D1000 assay kit, respectively. The quantified libraries were pooled equimolarly; 50ng of total library mix was used for Adapter Conversion PCR Amplification using the Universal Library Conversion Kit (App-A), Version: V1.0 (MGI Tech Co., Ltd.), according to the manufacturer’s instructions.
The quantity and quality of the purified adapter conversion PCR (AC-PCR) product were evaluated on a Qubit 4 Fluorometer with the Invitrogen Qubit dsDNA HS Assay and on an Agilent Tapestation 4150 with the High Sensitivity D1000 assay kit, respectively. This was followed by DNA denaturation, Single-Strand Circularisation, Enzymatic Digestion, Enzymatic Digestion Product Cleanup and Quality Control steps on 1 pmol of AC-PCR product, according to the Universal Library Conversion Kit (App-A) User Manual (Version: A3).
Finally, 60 fmol of ssCirDNA were used for DNB preparation and sequencing on a DNBSEQ-G400 platform at the BSRC Alexander Fleming Genomics Facility, using a G400 App-A FCS SE100 High-throughput Sequencing Set (MGI Tech Co., Ltd.), according to the manufacturer’s instructions.
Alignment of the FASTQ files was performed against the mouse genome build mm10 using a custom Bash script.[143] Read counting on the 3′ UTRs and differential expression analysis were conducted using the metaseqR2 bioconductor package.[144] Genes corresponding to the following biotypes were excluded: polymorphic_pseudogene, processed_transcript, pseudogene, IG_V_pseudogene, misc_RNA, IG_C_gene, IG_J_gene, IG_D_gene, IG_LV_gene, TR_V_gene, TR_V_pseudogene, TEC, and processed_pseudogene. Gene counts were normalized with DESEQ[145] through metaseqR2. Genes with more than 10 counts in at least 50% of the samples were kept for further processing. For differential expression analysis, the PANDORA algorithm[146] was used to estimate a meta p-value integrating the results from the DESEQ, DESEQ2,[147] edgeR,[148] limma,[149] NBPSeq,[150] and NOISeq[151] algorithms. All additional parameters were set to default values.
Pathway enrichment analysis was performed for the Gene Ontology Biological process (BP) and Molecular Function (MF) terms through GeneCodis 4.[152] The volcano plots, scatterplots, Venn diagrams, and dot plots were generated using the ggplot2 Bioconductor package.

[1] = lung tissue of BLM-treated mice

Structure (SMILES): O=C1NC(=O)C(Cc2ccc(OCCC3CCN(C(=O)OCc4cc(Cl)cc(Cl)c4)CC3)cc2)S1 (stereo not shown) [EL244, 3,5-dichlorobenzyl 4-(2-(4-((2,4-dioxothiazolidin-5-yl)methyl)phenoxy)ethyl)piperidine-1-carboxylate]
- Synm log2 nFC [1]: 0.84
- Synm nFC [1]: 1.79
- Tbc1d8 log2 nFC [1]: 1.01
- Tbc1d8 nFC [1]: 2.01
- Tbkbp1 log2 nFC [1]: 0.71
- Tbkbp1 nFC [1]: 1.64
- Tgfbr3 log2 nFC [1]: 0.83
- Tgfbr3 nFC [1]: 1.78
- Tmcc3 log2 nFC [1]: 0.74
- Tmcc3 nFC [1]: 1.67
- Tmem100 log2 nFC [1]: 0.82
- Tmem100 nFC [1]: 1.77
- Tns2 log2 nFC [1]: 0.77
- Tns2 nFC [1]: 1.70
- Tppp3 log2 nFC [1]: 0.77
- Tppp3 nFC [1]: 1.70
- Unc45b log2 nFC [1]: 0.77
- Unc45b nFC [1]: 1.70
- Vpreb3 log2 nFC [1]: 0.71
- Vpreb3 nFC [1]: 1.63
- Vwa3b log2 nFC [1]: 0.98
- Vwa3b nFC [1]: 1.97
- Zfp36 log2 nFC [1]: 0.94
- Zfp36 nFC [1]: 1.92
- Acss1 log2 nFC (lung tissue): 0.65
- Acss1 nFC (lung tissue): 1.56
- Actn1 log2 nFC (lung tissue): -0.60
- Actn1 nFC (lung tissue): 0.66
- Adam12 log2 nFC (lung tissue): -1.57
- Adam12 nFC (lung tissue): 0.34
- Adamts4 log2 nFC (lung tissue): -2.15
- Adamts4 nFC (lung tissue): 0.23
- Adamts12 log2 nFC (lung tissue): -1.47
- Adamts12 nFC (lung tissue): 0.36
- Adgre1 log2 nFC (lung tissue): -0.79
- Adgre1 nFC (lung tissue): 0.58
- Ahnak log2 nFC (lung tissue): 0.61
- Ahnak nFC (lung tissue): 1.52
- Akap12 log2 nFC (lung tissue): 0.65
- Akap12 nFC (lung tissue): 1.57
- Ankrd37 log2 nFC (lung tissue): -1.50
- Ankrd37 nFC (lung tissue): 0.35
- Anln log2 nFC (lung tissue): -2.01
- Anln nFC (lung tissue): 0.25
- Apoe log2 nFC (lung tissue): -0.84
- Apoe nFC (lung tissue): 0.56
- Arg1 log2 nFC (lung tissue): -2.32
- Arg1 nFC (lung tissue): 0.20
- Arhgef39 log2 nFC (lung tissue): -1.70
- Arhgef39 nFC (lung tissue): 0.31
- Aurka log2 nFC (lung tissue): -2.19
- Aurka nFC (lung tissue): 0.22
- Aurkb log2 nFC (lung tissue): -1.85
- Aurkb nFC (lung tissue): 0.28
- Bex3 log2 nFC (lung tissue): -0.75
- Bex3 nFC (lung tissue): 0.59
- Bhlhe40 log2 nFC (lung tissue): -0.85
- Bhlhe40 nFC (lung tissue): 0.56
- Birc5 log2 nFC (lung tissue): -2.03
- Birc5 nFC (lung tissue): 0.25
- Bmpr2 log2 nFC (lung tissue): 0.60
- Bmpr2 nFC (lung tissue): 1.52
- Brca2 log2 nFC (lung tissue): -1.64
- Brca2 nFC (lung tissue): 0.32
- Brinp1 log2 nFC (lung tissue): -1.85
- Brinp1 nFC (lung tissue): 0.28
- C1qa log2 nFC (lung tissue): -1.44
- C1qa nFC (lung tissue): 0.37
- C1qb log2 nFC (lung tissue): -1.51
- C1qb nFC (lung tissue): 0.35
- C1qc log2 nFC (lung tissue): -1.56
- C1qc nFC (lung tissue): 0.34
- C3ar1 log2 nFC (lung tissue): -1.58
- C3ar1 nFC (lung tissue): 0.33
- Capg log2 nFC (lung tissue): -0.82
- Capg nFC (lung tissue): 0.57
- Casp3 log2 nFC (lung tissue): -0.85
- Casp3 nFC (lung tissue): 0.56
- Ccdc80 log2 nFC (lung tissue): -1.64
- Ccdc80 nFC (lung tissue): 0.32
- Ccl2 log2 nFC (lung tissue): -1.43
- Ccl2 nFC (lung tissue): 0.37
- Ccl7 log2 nFC (lung tissue): -1.75
- Ccl7 nFC (lung tissue): 0.30
- Ccl8 log2 nFC (lung tissue): -1.54
- Ccl8 nFC (lung tissue): 0.34
- Ccl12 log2 nFC (lung tissue): -2.27
- Ccl12 nFC (lung tissue): 0.21
- Ccn4 log2 nFC (lung tissue): -2.20
- Ccn4 nFC (lung tissue): 0.22
- Ccna2 log2 nFC (lung tissue): -2.26
- Ccna2 nFC (lung tissue): 0.21
- Ccnb1 log2 nFC (lung tissue): -2.41
- Ccnb1 nFC (lung tissue): 0.19
- Ccnb2 log2 nFC (lung tissue): -1.68
- Ccnb2 nFC (lung tissue): 0.31
- Ccne1 log2 nFC (lung tissue): -2.04
- Ccne1 nFC (lung tissue): 0.24
- Ccnf log2 nFC (lung tissue): -2.02
- Ccnf nFC (lung tissue): 0.25
- Ccr5 log2 nFC (lung tissue): -1.76
- Ccr5 nFC (lung tissue): 0.30
- Cd63 log2 nFC (lung tissue): -0.76
- Cd63 nFC (lung tissue): 0.59
- Cd276 log2 nFC (lung tissue): -1.70
- Cd276 nFC (lung tissue): 0.31
- Cdc20 log2 nFC (lung tissue): -1.58
- Cdc20 nFC (lung tissue): 0.34
- Cdca3 log2 nFC (lung tissue): -1.83
- Cdca3 nFC (lung tissue): 0.28
- Cdca8 log2 nFC (lung tissue): -2.32
- Cdca8 nFC (lung tissue): 0.20
- Cdk1 log2 nFC (lung tissue): -1.99
- Cdk1 nFC (lung tissue): 0.25
- Cdk19 log2 nFC (lung tissue): -0.64
- Cdk19 nFC (lung tissue): 0.64
- Cdkn3 log2 nFC (lung tissue): -1.68
- Cdkn3 nFC (lung tissue): 0.31
- Cenpe log2 nFC (lung tissue): -1.70
- Cenpe nFC (lung tissue): 0.31
- Cenpf log2 nFC (lung tissue): -2.20
- Cenpf nFC (lung tissue): 0.22
- Cenph log2 nFC (lung tissue): -2.04
- Cenph nFC (lung tissue): 0.24
- Cenpk log2 nFC (lung tissue): -1.51
- Cenpk nFC (lung tissue): 0.35
- Cenpn log2 nFC (lung tissue): -1.74
- Cenpn nFC (lung tissue): 0.30
- Cenps log2 nFC (lung tissue): -1.80
- Cenps nFC (lung tissue): 0.29
- Cfp log2 nFC (lung tissue): -0.83
- Cfp nFC (lung tissue): 0.56
- Chl1 log2 nFC (lung tissue): -3.49
- Chl1 nFC (lung tissue): 0.09
- Chsy3 log2 nFC (lung tissue): -1.56
- Chsy3 nFC (lung tissue): 0.34
- Ckap2l log2 nFC (lung tissue): -2.06
- Ckap2l nFC (lung tissue): 0.24
- Ckap2 log2 nFC (lung tissue): -2.44
- Ckap2 nFC (lung tissue): 0.18
- Ckap4 log2 nFC (lung tissue): -0.63
- Ckap4 nFC (lung tissue): 0.65
- Ckb log2 nFC (lung tissue): -0.61
- Ckb nFC (lung tissue): 0.65
- Cks1b log2 nFC (lung tissue): -1.54
- Cks1b nFC (lung tissue): 0.34
- Clca3a1 log2 nFC (lung tissue): -2.06
- Clca3a1 nFC (lung tissue): 0.24
- Cldn4 log2 nFC (lung tissue): -1.99
- Cldn4 nFC (lung tissue): 0.25
- Clmp log2 nFC (lung tissue): -0.78
- Clmp nFC (lung tissue): 0.58
- Clspn log2 nFC (lung tissue): -1.79
- Clspn nFC (lung tissue): 0.29
- Clu log2 nFC (lung tissue): -0.81
- Clu nFC (lung tissue): 0.57
- Cmtm3 log2 nFC (lung tissue): -0.60
- Cmtm3 nFC (lung tissue): 0.66
- Col1a1 log2 nFC (lung tissue): -2.02
- Col1a1 nFC (lung tissue): 0.25
- Col3a1 log2 nFC (lung tissue): -1.54
- Col3a1 nFC (lung tissue): 0.34
- Col4a1 log2 nFC (lung tissue): -0.75
- Col4a1 nFC (lung tissue): 0.59
- Col4a2 log2 nFC (lung tissue): -0.64
- Col4a2 nFC (lung tissue): 0.64
- Col5a1 log2 nFC (lung tissue): -1.52
- Col5a1 nFC (lung tissue): 0.35
- Col5a2 log2 nFC (lung tissue): -1.48
- Col5a2 nFC (lung tissue): 0.36
- Col5a3 log2 nFC (lung tissue): -1.53
- Col5a3 nFC (lung tissue): 0.35
- Col6a2 log2 nFC (lung tissue): -0.67
- Col6a2 nFC (lung tissue): 0.63
- Col6a3 log2 nFC (lung tissue): -0.77
- Col6a3 nFC (lung tissue): 0.59
- Cped1 log2 nFC (lung tissue): 0.63
- Cped1 nFC (lung tissue): 1.55
- Cthrc1 log2 nFC (lung tissue): -2.00
- Cthrc1 nFC (lung tissue): 0.25
- Ctnnbip1 log2 nFC (lung tissue): -0.62
- Ctnnbip1 nFC (lung tissue): 0.65
- Ctsb log2 nFC (lung tissue): -0.75
- Ctsb nFC (lung tissue): 0.59
- Ctsh log2 nFC (lung tissue): -0.63
- Ctsh nFC (lung tissue): 0.64
- Cxcl9 log2 nFC (lung tissue): -1.62
- Cxcl9 nFC (lung tissue): 0.32
- Cxcl10 log2 nFC (lung tissue): -1.90
- Cxcl10 nFC (lung tissue): 0.27
- Cxcl12 log2 nFC (lung tissue): -0.67
- Cxcl12 nFC (lung tissue): 0.63
- Cxcl13 log2 nFC (lung tissue): -1.42
- Cxcl13 nFC (lung tissue): 0.37
- Cyth4 log2 nFC (lung tissue): -0.71
- Cyth4 nFC (lung tissue): 0.61
- Cytip log2 nFC (lung tissue): 0.63
- Cytip nFC (lung tissue): 1.54
- Ddr1 log2 nFC (lung tissue): -0.66
- Ddr1 nFC (lung tissue): 0.63
- Dnmt1 log2 nFC (lung tissue): -0.84
- Dnmt1 nFC (lung tissue): 0.56
- Dtl log2 nFC (lung tissue): -1.94
- Dtl nFC (lung tissue): 0.26
- Dtx4 log2 nFC (lung tissue): -0.70
- Dtx4 nFC (lung tissue): 0.61
- E2f8 log2 nFC (lung tissue): -1.57
- E2f8 nFC (lung tissue): 0.34
- Ect2 log2 nFC (lung tissue): -1.89
- Ect2 nFC (lung tissue): 0.27
- Efnb2 log2 nFC (lung tissue): 0.61
- Efnb2 nFC (lung tissue): 1.53
- Eln log2 nFC (lung tissue): -2.07
- Eln nFC (lung tissue): 0.24
- Emid1 log2 nFC (lung tissue): -0.78
- Emid1 nFC (lung tissue): 0.58
- Emilin1 log2 nFC (lung tissue): -0.84
- Emilin1 nFC (lung tissue): 0.56
- Emp1 log2 nFC (lung tissue): -0.70
- Emp1 nFC (lung tissue): 0.62
- Enc1 log2 nFC (lung tissue): -0.80
- Enc1 nFC (lung tissue): 0.57
- Epas1 log2 nFC (lung tissue): 0.67
- Epas1 nFC (lung tissue): 1.59
- Epb41 log2 nFC (lung tissue): 0.61
- Epb41 nFC (lung tissue): 1.52
- Espl1 log2 nFC (lung tissue): -1.71
- Espl1 nFC (lung tissue): 0.31
- Evi2a log2 nFC (lung tissue): -0.82
